Reference: the supplement of paper PMC8960247
Where a name gives a salt, the structure may show the parent alone. ± gives the standard error.

What was measured:
UMB1949 (TSC2-deficient) = assay: relative viability vs DMSO (fraction); higher = less cytotoxic; conditions: serum: 0.1% FBS, 72 h;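 also: renal angiomyolipoma cell lines screened in 384-well plates, viability normalized per plate to DMSO-treated cells, each plate carrying 50 nM rapamycin and 1 µM staurosporine controls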
621-102 (TSC2-deficient) [1] = assay: relative viability vs DMSO; higher = less cytotoxic; conditions: serum: 10% FBS, 72 h
621-103 (TSC2-rescued) = assay: as above; conditions: serum: 10% FBS, 72 h
621-102 (TSC2-deficient) [2] = assay: relative viability vs DMSO (fraction); higher = less cytotoxic; conditions: serum: 0.1% FBS, 72 h

| Structure (SMILES) | relative viability (UMB1949 (TSC2-deficient); 0.0128 nM) | relative viability (UMB1949 (TSC2-deficient); 0.064 nM) | relative viability (UMB1949 (TSC2-deficient); 0.32 nM) | relative viability (UMB1949 (TSC2-deficient); 1.6 nM) | relative viability (UMB1949 (TSC2-deficient); 8 nM) | relative viability (UMB1949 (TSC2-deficient); 40 nM) | relative viability (UMB1949 (TSC2-deficient); 200 nM) | relative viability (UMB1949 (TSC2-deficient); 1000 nM) | relative viability (UMB1949 (TSC2-deficient); 5000 nM) | relative viability (621-102 (TSC2-deficient) [1]; 0.0001 µM) [%] | relative viability (621-102 (TSC2-deficient) [1]; 0.001 µM) [%] | relative viability (621-102 (TSC2-deficient) [1]; 0.01 µM) [%] | relative viability (621-102 (TSC2-deficient) [1]; 0.1 µM) [%] | relative viability (621-102 (TSC2-deficient) [1]; 1 µM) [%] | relative viability (621-102 (TSC2-deficient) [1]; 10 µM) [%] | relative viability (621-103 (TSC2-rescued); 0.0001 µM) [%] | relative viability (621-103 (TSC2-rescued); 0.001 µM) [%] | relative viability (621-103 (TSC2-rescued); 0.01 µM) [%] | relative viability (621-103 (TSC2-rescued); 0.1 µM) [%] | relative viability (621-103 (TSC2-rescued); 1 µM) [%] | relative viability (621-103 (TSC2-rescued); 10 µM) [%] | relative viability (621-102 (TSC2-deficient) [2]; 0.0128 nM) | relative viability (621-102 (TSC2-deficient) [2]; 0.064 nM) | relative viability (621-102 (TSC2-deficient) [2]; 0.32 nM) | relative viability (621-102 (TSC2-deficient) [2]; 1.6 nM) | relative viability (621-102 (TSC2-deficient) [2]; 8 nM) | relative viability (621-102 (TSC2-deficient) [2]; 40 nM) | relative viability (621-102 (TSC2-deficient) [2]; 200 nM) | relative viability (621-102 (TSC2-deficient) [2]; 1000 nM) | relative viability (621-102 (TSC2-deficient) [2]; 5000 nM) |
| --- | --- | --- | --- | --- | --- | --- | --- | --- | --- | --- | --- | --- | --- | --- | --- | --- | --- | --- | --- | --- | --- | --- | --- | --- | --- | --- | --- | --- | --- | --- |
| CCS(=O)(=O)c1cccc(-c2cc(C(=O)NC3CCN(C)CC3)c(C)c3[nH]c4ncc(C)cc4c23)c1 [TAK-901] | 0.561 | 0.0956 | 0.0821 | 0.0562 | 0.0574 | 0.0411 | 0.00479 | 0.00175 | 0.0045 | 94.4 ± 2 | 98.3 ± 4.1 | 90 ± 2.7 | 75.451 ± 0.045 | 45.4 ± 2 | 7.72 ± 0.56 | 108 ± 2.1 | 97 ± 2 | 81.4 ± 1.8 | 72.5 ± 1.6 | 28.2 ± 2.3 | 5.6 ± 0.7 |  |  |  |  |  |  |  |  |  |
| COC(=O)Nc1nc2cc(Sc3ccccc3)ccc2[nH]1 [Fenbendazole] | 1.05 | 0.807 | 1.02 | 0.969 | 0.983 | 0.605 | 0.00543 | 0.00256 | 0.00375 |  |  |  |  |  |  |  |  |  |  |  |  | 1.37 | 1.35 | 1.68 | 1.39 | 0.898 | 0.314 | 0.0634 | 0.0446 | 0.0203 |
| CC1=NN(c2ccc(C)c(C)c2)C(=O)/C1=N\Nc1cccc(-c2cccc(C(=O)O)c2)c1O [Eltrombopag] | 1.08 | 0.963 | 1 | 1.05 | 1.09 | 1.03 | 0.473 | 0.00551 | 0.00668 |  |  |  |  |  |  |  |  |  |  |  |  | 1.19 | 0.961 | 0.994 | 0.991 | 0.875 | 0.926 | 1.43 | 0.074 | 0.0453 |
| CC(C)C[C@@H](C=O)NC(=O)[C@H](CC(C)C)NC(=O)[C@H](CC(C)C)NC(=O)OCc1ccccc1 [MG132] | 0.846 | 0.0534 | 0.0466 | 0.00704 | 0.00406 | 0.00242 | 0.00153 | 0.000971 | 0.00561 |  |  |  |  |  |  |  |  |  |  |  |  | 0.611 | 0.586 | 0.383 | 0.272 | 0.148 | 0.00944 | 0.00319 | 0.00253 | 0.0116 |
| C#Cc1cccc(Nc2ncnc3cc(OC)c(OCCCCCCC(=O)NO)cc23)c1 [CUDC-101] |  |  |  |  |  |  |  |  |  | 110.7 ± 0.61 | 108 ± 6.5 | 104 ± 1.9 | 95.14 ± 0.26 | 85.2 ± 2 | 30.6 ± 1.5 | 94.9 ± 1.2 | 99.73 ± 0.74 | 97.8 ± 1.4 | 93.79 ± 0.69 | 83.8 ± 2.3 | 2.28 ± 0.2 | 0.714 | 0.529 | 0.505 | 0.386 | 0.343 | 0.123 | 0.127 | 0.005 | 0.0015 |
| Cc1ccc(NC(=O)c2ccc(CN3CCN(C)CC3)cc2)cc1Nc1nc(-c2cccnc2)cs1 [Masitinib(AB1010)] | 1.09 | 1.21 | 1.16 | 1.18 | 1.09 | 1.19 | 0.96 | 0.156 | 0.0043 |  |  |  |  |  |  |  |  |  |  |  |  | 0.869 | 0.9 | 0.886 | 0.951 | 0.909 | 0.82 | 0.683 | 0.277 | 0.0135 |
| Cc1[nH]c2ccccc2c1CCNCc1ccc(/C=C/C(=O)NO)cc1 [Panobinostat (LBH589)] | 1.08 | 1.02 | 0.955 | 0.779 | 0.0132 | 0.00793 | 0.0069 | 0.00422 | 0.00261 |  |  |  |  |  |  |  |  |  |  |  |  | 1.34 | 0.935 | 1.1 | 0.909 | 0.458 | 0.228 | 0.0101 | 0.00297 | 0.00203 |
| CO[C@H]1C[C@@H]2CC[C@@H](C)[C@@](O)(O2)C(=O)C(=O)N2CCCC[C@H]2C(=O)O[C@H]([C@H](C)C[C@@H]2CC[C@@H](O)[C@H](OC)C2)CC(=O)[C@H](C)/C=C(\C)[C@@H](O)[C@@H](OC)C(=O)[C@H](C)C[C@H](C)/C=C/C=C/C=C/1C [Rapamycin(Sirolimus)] | 0.874 | 0.825 | 0.847 | 0.773 | 0.818 | 0.841 | 0.593 | 0.466 | 0.364 |  |  |  |  |  |  |  |  |  |  |  |  | 0.506 | 0.495 | 0.584 | 0.441 | 0.385 | 0.388 | 0.254 | 0.277 | 0.222 |
| Nc1ccn([C@@H]2O[C@H](CO)[C@@H](O)[C@@H]2O)c(=O)n1 [Cytarabine] | 0.98 | 0.941 | 0.967 | 0.962 | 0.974 | 0.929 | 0.176 | 0.00531 | 0.0022 |  |  |  |  |  |  |  |  |  |  |  |  | 1.24 | 1.08 | 1.14 | 0.885 | 1.01 | 0.505 | 0.244 | 0.096 | 0.0178 |
| CO[C@H]1C[C@@H]2CC[C@@H](C)[C@@](O)(O2)C(=O)C(=O)N2CCCC[C@H]2C(=O)O[C@H]([C@H](C)C[C@@H]2CC[C@@H](OCCO)[C@H](OC)C2)CC(=O)[C@H](C)/C=C(\C)[C@@H](O)[C@@H](OC)C(=O)[C@H](C)C[C@H](C)/C=C/C=C/C=C/1C [Everolimus(RAD001)] | 1 | 0.899 | 0.985 | 0.9 | 0.936 | 0.847 | 0.781 | 0.401 | 0.461 |  |  |  |  |  |  |  |  |  |  |  |  | 0.753 | 0.734 | 0.706 | 0.696 | 0.681 | 0.543 | 0.391 | 0.325 | 0.276 |
| CCC[C@H](Nc1nc(-c2ccc(NC(=O)NCC)c(OC)c2)ncc1C)c1cccnc1 [CYT997] | 0.622 | 0.0694 | 0.00719 | 0.0079 | 0.00595 | 0.00742 | 0.00575 | 0.00558 | 0.00511 | 87.8 ± 1.3 | 95.67 ± 0.75 | 48.6 ± 1.6 | 39.1 ± 0.56 | 36.2 ± 0.95 | 41 ± 1.1 | 82.2 ± 1.5 | 78.28 ± 0.4 | 40.2 ± 0.82 | 26.3 ± 2.2 | 24.3 ± 0.3 | 25.4 ± 2 |  |  |  |  |  |  |  |  |  |
| CN1CC[C@H](c2c(O)cc(O)c3c(=O)cc(-c4ccccc4Cl)oc23)[C@H](O)C1 [Flavopiridol(Alvocidib)] | 1.12 | 1.16 | 1.04 | 1.21 | 1.08 | 0.923 | 0.00682 | 0.00291 | 0.00348 |  |  |  |  |  |  |  |  |  |  |  |  | 1.14 | 1.2 | 1.24 | 1.15 | 0.972 | 0.212 | 0.00428 | 0.00239 | 0.00377 |
| Cc1ccc([N+](=O)[O-])cc1S(=O)(=O)N(C)/N=C/c1cnc2ccc(Br)cn12 [PIK-75 Hydrochloride] | 0.512 | 0.42 | 0.371 | 0.417 | 0.126 | 0.00679 | 0.00475 | 0.00356 | 0.00221 |  |  |  |  |  |  |  |  |  |  |  |  |  |  |  |  |  |  |  |  |  |
| CC[C@@]1(O)C(=O)OCc2c1cc1n(c2=O)Cc2cc3ccccc3nc2-1 [Camptothecin] | 0.995 | 0.913 | 0.83 | 0.129 | 0.0117 | 0.00478 | 0.00188 | 0.00182 | 0.00462 |  |  |  |  |  |  |  |  |  |  |  |  | 0.843 | 0.818 | 0.747 | 0.485 | 0.166 | 0.178 | 0.00844 | 0.00416 | 0.00456 |
